The numbers were not newly measured in patent US8454993B2, “Controlled release pharmaceutical compositions of pregabalin” (Lupin Limited, priority 2007, dated 2013), which cites them from elsewhere.

For this series the following is noted: in water and both basic and acidic aqueous solutions.

Molecules are shown by their SMILES.

Consider `CC(C)C[C@H](CN)CC(=O)O` [Pregabalin, (S)-(+)-3-(aminomethyl)-5-methylhexanoic acid], for which the solubility entry is listed as “freely soluble”.
